Experimental data from patent US20250154145A1, “OXER1 ANTAGONISTS AND USES THEREOF” (Fairhaven Pharmaceuticals Ins., priority 2021, published 2025).

These compounds were tested on neutrophils (assay: Neutrophil calcium flux assay (5-OXO-ETE-stimulated, Indo-1 fluorescence)). Conditions: 5-OXO-ETE-stimulated calcium flux.
Format: cell-based
How it was run: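 Indo-1-loaded neutrophils (5×10^6 cells/ml, 30 min at 37 °C) in HBSS with Ca/Mg and HEPES, pre-incubated 5 min with antagonist or buffer. Stimulated with 5-OXO-ETE added at 200 nM (4× stock); fluorescence (ex 331/em 410 nm) read every 5 s for 30 cycles, expressed as net fluorescence.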

Compound	IC50 [nM]
CC(CC(=O)O)CC(=O)c1c(CCCCCC(O)c2cccc(C#N)c2)n(C)c2ncc(Cl)cc12 (single isomer, unassigned) [Compound I-306]	> 300

Same assay, conditions: Neutrophil, 5-OXO-ETE-stimulated calcium flux

Compound	IC50 [nM]
COC(=O)NCCCCCc1c(C(=O)CC(C)CC(=O)O)c2cc(Cl)ccc2n1C (stereo not shown) [Compound I-134]	> 300
CC(CC(=O)O)CC(=O)c1c(CCCCCCC#CC2CC(F)(F)C2)n(C)c2ncc(C#N)cc12 (stereo not shown) [Compound I-322]	< 100
CC(CC(=O)O)CC(=O)c1c(CCCCCC(O)c2ccc(F)c(Cl)c2)n(C)c2ncc(C#N)cc12 (stereo not shown) [Compound I-301]	< 100
Cn1c(CCCCCCc2cccc(Cl)c2)c(C(=O)N2CC[C@H](C(=O)NS(C)(=O)=O)C2)c2cc(C#N)cnc21 [Compound I-361]	> 300
C[C@H](CC(=O)O)CC(=O)c1c(CCCCCCCC#CC2CC(F)(F)C2)n(C)c2ncc(C#N)cc12 [Compound I-335]	< 100
C[C@@H](CC(=O)O)CC(=O)c1c(CCCCOCc2cccc(C#N)c2)n(C)c2ncc(C#N)cc12 [Compound I-384]	> 300
C[C@H](CC(=O)O)CC(=O)c1c(CCCCCCC#CC2CC(F)(F)C2)n(C)c2ncc(C#N)cc12 [Compound I-328]	< 100
Cc1ccccc1COCCCCc1c(C(=O)CC(C)CC(=O)O)c2cc(C#N)cnc2n1C (stereo not shown) [Compound I-450]	> 300
CC(CC(=O)O)CC(=O)c1c(CCCCCCc2cccc(Cl)c2)n(CCN(C)C)c2ncc(C#N)cc12 (stereo not shown) [Compound I-281]	> 300
COc1cccc(C(O)CCCCCc2c(C(=O)CC(C)CC(=O)O)c3cc(C#N)cnc3n2C)c1 (stereo not shown) [Compound I-302]	< 100
Cn1c(CCCCCC(O)c2cccc(Cl)c2)c(C(=O)N2CC[C@H](c3nnn[nH]3)C2)c2cc(C#N)cnc21 (stereo partly shown) [Compound I-225]	100 to 300
C[C@@H](CC(=O)O)CC(=O)c1c(CCCCOCc2cc(Cl)cc(Cl)c2)n(C)c2ncc(C#N)cc12 [Compound I-386]	100 to 300
C[C@@H](CC(=O)O)CC(=O)c1c(CCCCOCc2cccc(C#N)c2)n(C)c2ccncc12 [Compound I-397]	> 300
COc1cnc2c(c1)c(C(=O)CC(C)CC(=O)O)c(CCCCOCc1ccccc1)n2C (stereo not shown) [Compound I-103]	> 300
CC(CC(=O)O)CC(=O)c1c(CCCCOCc2cccc(Cl)c2)n(CCO)c2ncc(C#N)cc12 (stereo not shown) [Compound I-377]	> 300
Cn1c(CCCCCCC#CC2CC(F)(F)C2)c(C(=O)N2CC[C@@H](C(=O)O)C2)c2cc(C#N)cnc21 [Compound I-341]	> 300
C[C@H](CC(=O)O)CC(=O)c1c(CCCCCCc2cccc(Cl)c2)n(C)c2ccc(OC(F)(F)F)cc12 [Compound I-97]	< 100
C[C@H](CC(=O)NCC(=O)O)CC(=O)c1c(CCCCOCc2ccccc2)n(C)c2ncc(C#N)cc12 [Compound I-459]	> 300
C[C@H](CC(=O)O)CC(=O)c1c(COCCCCc2cccc(Cl)c2)n(C)c2ccc(Cl)cc12 [Compound I-63]	< 100
Cn1c(CCCCCCC#CC2CC(F)(F)C2)c(C(=O)N2CC[C@H](C(=O)NCCS(=O)(=O)O)C2)c2cc(C#N)cnc21 [Compound I-464]	> 300
C[C@H](CC(=O)O)CC(=O)c1c(CCCCCNc2cccnc2)n(C)c2ncc(Cl)cc12 [Compound I-140]	> 300
Cn1c(CCCCCCc2cccc(Cl)c2)c(C(=O)N2CC(C(=O)O)C2)c2cc(Cl)cnc21 [Compound I-153]	> 300
C[C@H](CC(=O)O)CC(=O)c1c(CCCCOCc2ccccc2)n(C)c2ncc(Cl)cc12 [Compound I-99]	100 to 300
C[C@@H]1[C@@H](C(=O)O)CCN1C(=O)c1c(CCCCCCC#CC2CC(F)(F)C2)n(C)c2ncc(C#N)cc12 [Compound I-346]	< 100
C[C@H](CC(=O)O)CC(=O)c1c(CCCCC[C@H](O)c2cccc(Cl)c2)n(C)c2ncc(Cl)cc12 [Compound I-110]	< 100
C[C@H](CC(=O)O)CC(=O)c1c(CCCCC(=O)Nc2cccc(Cl)c2)n(C)c2ccc(Cl)cc12 [Compound I-80]	> 300
C[C@H](CC(=O)O)CC(=O)c1c(CCCCCOCc2cccc(Cl)c2)n(C)c2ccc(C#N)cc12 [Compound I-425]	100 to 300
